The term IC90 denotes the point of the concentration-response curve where the effect stands at 90%.

Where a name gives a salt, the structure may show the parent alone.

The subject of the experiment is Acinetobacter baumannii ATCC17961. The experiment can be described thus: Antimicrobial susceptibility testing: 90% growth inhibitory concentration (IC90) determination. Type of experiment: cell-based. Particulars: Acinetobacter baumannii, ATCC17961, 16 h, 90% growth inhibitory concentration against Acinetobacter baumannii ATCC17961, Iso-Sensitest broth, OD 600 nm over 16 h; read-out: ATCC 17961 IC90. Summed up: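 OD600 monitored each minute over 16 h at 35±2° C for bacteria (~5×10^5 CFU/mL final) in Iso-Sensitest medium with 10-point twofold compound series (e.g. 10-0.0195 μM final). Concentration giving 90% growth inhibition in log phase reported as IC90.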
As to `Cn1c(-c2cn(-c3ccc(NC[C@@H]4C[C@H](F)CN4)cn3)nc2C(F)(F)F)cnc1C(=O)Nc1ccc(C(=O)N2CCN(C(=O)C3CC[N+](CC(=O)O)(CC4CNC4)CC3)CC2)c(Cl)c1` (stereo partly drawn) [Example 57, 2-[1-(azetidin-3-ylmethyl)-4-[4-[2-chloro-4-[[5-[1-[5-[[(2S,4S)-4-fluoropyrrolidin-2-yl]methylamino]-2-pyridyl]-3-(trifluoromethyl)pyrazol-4-yl]-1-methyl-imidazole-2-carbonyl]amino]benzoyl]piperazine-1-carbonyl]piperidin-1-ium-1-yl]acetic acid. 1:1 2,2,2-trifluoroacetic acid. 1:1 2,2,2-trifluoroacetate], the IC90 turned out to be 0.61 µM. In the case of `COCCNc1ccc(-n2cc(-c3cnc(C(=O)Nc4ccc(C(=O)N5CCN(C(=O)[C@H]6CC[N@+](CC(=O)O)(CC7CNC7)CC6)CC5)c(Cl)c4)n3C)c(C(F)(F)F)n2)nc1` [Example 31, cis-2-[1-(Azetidin-3-ylmethyl)-4-[4-[2-chloro-4-[[5-[1-[5-(2-methoxyethylamino)-2-pyridyl]-3-(trifluoromethyl)pyrazol-4-yl]-1-methyl-imidazole-2-carbonyl]amino]benzoyl]piperazine-1-carbonyl]piperidin-1-ium-1-yl]acetic Acid;2,2,2-trifluoroacetate] it was 0.37 µM; in that of `Cc1cc(NC(=O)c2ncc(-c3cn(-c4ccc5[nH]c([C@H](C)O)cc5n4)nc3C(F)(F)F)n2C)ccc1C(=O)N1CCN(C(=O)[C@H]2CC[N@@+](CCCN)(CC(=O)O)CC2)CC1` [Example 101, cis-2-[1-(3-aminopropyl)-4-[4-[4-[[5-[1-[2-[(1S)-1-hydroxyethyl]-1H-pyrrolo[3,2-b]pyridin-5-yl]-3-(trifluoromethyl)pyrazol-4-yl]-1-methyl-imidazole-2-carbonyl]amino]-2-methyl-benzoyl]piperazine-1-carbonyl]piperidin-1-ium-1-yl]acetic acid;chloride], 0.338 µM.

With `Cn1c(-c2cn(-c3ccc4[nH]ncc4n3)nc2C(F)(F)F)cnc1C(=O)Nc1ccc(C(=O)N2CCN(C(=O)[C@H]3CC[N@+](CC(=O)O)(CC4CNC4)CC3)CC2)c(Cl)c1` [Example 42, cis-2-[1-(azetidin-3-ylmethyl)-4-[4-[2-chloro-4-[[1-methyl-5-[1-(1H-pyrazolo[4,3-b]pyridin-5-yl)-3-(trifluoromethyl)pyrazol-4-yl]imidazole-2-carbonyl]amino]benzoyl]piperazine-1-carbonyl]piperidin-1-ium-1-yl]acetic acid. 1:1 2,2,2-trifluoroacetate], the 90% effect concentration (IC90) turned out to be 0.44 µM.

Consider `CN(C)CC[N@+]1(CC(=O)O)CC[C@H](C(=O)N2CCN(C(=O)c3ccc(NC(=O)c4ncc(-c5cn(-c6ccc(N)cc6F)nc5C(F)(F)F)n4C)cc3Cl)CC2)CC1` [Example 187, trans-2-[4-[4-[4-[[5-[1-(4-amino-2-fluoro-phenyl)-3-(trifluoromethyl)pyrazol-4-yl]-1-methyl-imidazole-2-carbonyl]amino]-2-chloro-benzoyl]piperazine-1-carbonyl]-1-[2-(dimethylamino)ethyl]piperidin-1-ium-1-yl]acetic acid;2,2,2-trifluoroacetate], for which the IC90 came out at 0.745 µM. `Cn1c(-c2cn(-c3ccc4[nH]ccc4n3)nc2C(F)(F)F)cnc1C(=O)Nc1ccc(C(=O)N2CCN(C(=O)[C@H]3CC[N@+](CC(=O)O)(CC4CNC4)CC3)CC2)c(F)c1` [Example 133, cis-2-[1-(azetidin-3-ylmethyl)-4-[4-[2-fluoro-4-[[1-methyl-5-[1-(1H-pyrrolo[3,2-b]pyridin-5-yl)-3-(trifluoromethyl)pyrazol-4-yl]imidazole-2-carbonyl]amino]benzoyl]piperazine-1-carbonyl]piperidin-1-ium-1-yl]acetic acid. 1:1 2,2,2-trifluoroacetate]: the IC90 was 0.146 µM. The same measure for `Cn1c(-c2cn(-c3ccc(NC4CCC4)cn3)nc2C(F)(F)F)cnc1C(=O)Nc1ccc(C(=O)N2CCN(C(=O)C3CC[N+](CC(=O)O)(CC4CNC4)CC3)CC2)c(Cl)c1` (centres unmarked) [Example 69, 2-[1-(azetidin-3-ylmethyl)-4-[4-[2-chloro-4-[[5-[1-[5-(cyclobutylamino)-2-pyridyl]-3-(trifluoromethyl)pyrazol-4-yl]-1-methyl-imidazole-2-carbonyl]amino]benzoyl]piperazine-1-carbonyl]piperidin-1-ium-1-yl]acetic acid. 1:1 formate]: 0.79 µM; for `Cn1c(-c2cn(-c3cc4[nH]cc(C(=O)N5CCC(F)(F)CC5)c4cn3)nc2C(F)(F)F)cnc1C(=O)Nc1ccc(C(=O)N2CCN(C(=O)[C@H]3CC[N@+](CC(=O)O)(CC4CNC4)CC3)CC2)c(Cl)c1` [Example 179, cis-2-[1-(azetidin-3-ylmethyl)-4-[4-[2-chloro-4-[[5-[1-[3-(4,4-difluoropiperidine-1-carbonyl)-1H-pyrrolo[3,2-c]pyridin-6-yl]-3-(trifluoromethyl)pyrazol-4-yl]-1-methyl-imidazole-2-carbonyl]amino]benzoyl]piperazine-1-carbonyl]piperidin-1-ium-1-yl]acetic acid. 1:1 2,2,2-trifluoroacetate]: 0.0958 µM; for `Cn1c(-c2cn(-c3ccc(NCCCN)cn3)nc2C(F)(F)F)cnc1C(=O)Nc1ccc(C(=O)N2CCN(C(=O)[C@H]3CC[N@+](CC(=O)O)(CC4CNC4)CC3)CC2)c(Cl)c1` [Example 15, cis-2-[4-[4-[4-[[5-[1-[5-(3-aminopropylamino)-2-pyridyl]-3-(trifluoromethyl)pyrazol-4-yl]-1-methyl-imidazole-2-carbonyl]amino]-2-chloro-benzoyl]piperazine-1-carbonyl]-1-(azetidin-3-ylmethyl)piperidin-1-ium-1-yl]acetic acid. 1:1 2,2,2-trifluoroacetic acid. 1:1 2,2,2-trifluoroacetate]: 0.21 µM. For `Cn1c(-c2cn(-c3cc4[nH]c(C(=O)N5CCOCC5)cc4cn3)nc2C(F)(F)F)cnc1C(=O)Nc1ccc(C(=O)N2CCN(C(=O)[C@H]3CC[N@+](CC(=O)O)(CC4CNC4)CC3)CC2)c(Cl)c1` [Example 139, cis-2-[1-(azetidin-3-ylmethyl)-4-[4-[2-chloro-4-[[1-methyl-5-[1-[2-(morpholine-4-carbonyl)-1H-pyrrolo[3,2-c]pyridin-6-yl]-3-(trifluoromethyl)pyrazol-4-yl]imidazole-2-carbonyl]amino]benzoyl]piperazine-1-carbonyl]piperidin-1-ium-1-yl]acetic acid. 1:1 2,2,2-trifluoroacetate], the IC90 turned out to be 0.172 µM.

Take `Cn1c(-c2cn(-c3cc4[nH]c(C(=O)NCCO)cc4cn3)nc2C(F)(F)F)cnc1C(=O)Nc1ccc(C(=O)N2CCN(C(=O)[C@H]3CC[N@+](CC(=O)O)(CC4CNC4)CC3)CC2)c(Cl)c1` [Example 115, cis-2-[1-(azetidin-3-ylmethyl)-4-[4-[2-chloro-4-[[5-[1-[2-(2-hydroxyethylcarbamoyl)-1H-pyrrolo[3,2-c]pyridin-6-yl]-3-(trifluoromethyl)pyrazol-4-yl]-1-methyl-imidazole-2-carbonyl]amino]benzoyl]piperazine-1-carbonyl]piperidin-1-ium-1-yl]acetic acid. 1:1 2,2,2-trifluoroacetate]: the IC90 is 0.295 µM.

Source of the values: US20250179066A1, “ZWITTERIONIC ANTIBACTERIAL COMPOUNDS” (Hoffmann-La Roche Inc., priority 2022, published 2025).
